Measured values from patent US7947707B2, “Nitrogenated heterocyclic compound and pharmaceutical composition comprising the same” (Kissei Pharmaceutical Co., Ltd., priority 2005, dated 2011).

How the values were obtained:
[1] = biological target: T1, HEK293 cells forced to express URAT1 (Homo sapiens, UniProt Q96S37); assay: URAT1 inhibitory effect, [8-14C] uric acid uptake; format: cell-based; conditions: test compound 100 μmol/L, 20 μmol/L uric acid, 5 minutes uptake
T1 construct: host or cells: HEK293
T1 sequence (Q96S37 1-553): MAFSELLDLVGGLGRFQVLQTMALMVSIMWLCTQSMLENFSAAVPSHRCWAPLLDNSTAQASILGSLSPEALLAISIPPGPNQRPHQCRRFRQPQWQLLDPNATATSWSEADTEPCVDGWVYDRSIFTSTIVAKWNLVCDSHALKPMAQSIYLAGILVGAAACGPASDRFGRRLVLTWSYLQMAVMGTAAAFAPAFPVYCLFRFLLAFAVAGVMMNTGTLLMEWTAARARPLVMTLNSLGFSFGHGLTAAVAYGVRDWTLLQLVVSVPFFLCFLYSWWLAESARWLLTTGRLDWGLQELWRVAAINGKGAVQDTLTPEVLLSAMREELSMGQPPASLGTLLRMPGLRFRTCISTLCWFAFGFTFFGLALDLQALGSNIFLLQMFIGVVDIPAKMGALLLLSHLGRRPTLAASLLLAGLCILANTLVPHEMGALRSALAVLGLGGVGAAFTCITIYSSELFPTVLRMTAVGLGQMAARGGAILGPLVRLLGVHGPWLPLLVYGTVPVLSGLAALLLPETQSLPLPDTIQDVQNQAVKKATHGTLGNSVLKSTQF
Description: DMEM containing 10% FBS (supplemented with 0.05% geneticin, Nissui Pharmaceutical Co., Ltd.), HEK293 cells forced to express URAT1 (HCS (Human cell Systems), (Fuji Biomedix)), HBSS as washing buffer and HBSS substituted with Na-gluconate (NaCl in HBSS was substituted with Na-gluconate) were used for assay. [8-^14C] uric acid (moravek) was used as an uric acid reagent and added to assay buffer at 20 μmol/L as a final concentration. Compounds of the present invention were used as a test compound, 20 mmol/L stock solution of each test compound (DMSO solution) was diluted appropriately, and then the diluted test compound solution was added to assay buffer at 100 μmol/L as a final concentration including 0.5% final concentration of DMSO.
To prepare assay plates, at first, cells on subculture petri dish were peeled off using treatment of 0.05% trypsin-EDTA solution, and then seeded on Biocoat Poly-D-Lysine Cellware 24 well plate (BECTON DICKINSON) at a density of 2×10^5 cells/well and cultured for 2 days.
For the uptake study, at first, culture medium was removed by aspiration and cells were washed twice with HBSS (37° C.), then the buffer was replaced with 1 mL of assay buffer (37° C.). Cells were pre-incubated for 10 minutes. And then, the buffer was removed by aspiration and 0.5 mL of radioisotope ligand solution incubated at 37° C. was added, then cells were incubated for 5 minutes. After uptake, radioisotope solution was removed by aspiration, and immediately cells were washed three times with ice-cold HBSS, followed by resolving by addition of 0.5 mL of 0.5 mol/L NaOH. Cell lysate solution was transferred to a vial or 24 well plate for Betaplate, and mixed with 0.5 mL of liquid scintillator (Optiphase ‘Super Mix’; Perkin Elmer). Radioisotope activity was measured (using Betaplate 1450). As mean count in control solution not including test compound was 100%, percent inhibition was calculated by determining percent decrease in mean count in solution including test compound from mean count in control solution.

[2] = system: potassium oxonate induced hyperuricemia; assay: Blood hypouricemic effect, potassium oxonate induced hyperuricemia; format: in vivo; conditions: Rattus norvegicus, po, male SD rats, serum 2 hours after administration, read-out: Decrease (%) in UA concentration; for inhibition in vivo at 10 mg/kg: 10 mg/kg orally
Procedure: Effect of compound of the present invention as a test compound was studied on potassium oxonate induced hyperuricemia with male 7-week-old SD rats (Charles River Japan) and potassium oxonate (Aldrich) suspended in 1% gum arabic solution. Test compound was suspended in 0.5% CMC-Na solution, and then administered orally. Dosing was 10 mg/kg or 50 mg/kg. All volume of administered solution was 10 mL/kg. Potassium oxonate 250 mg/kg was administered to dorsal region of rats subcutaneously, 1 hour later each test compound was administered orally. For control group, only 0.5% CMC-Na solution as a vehicle was administrated. At 2 hours after administration of test compounds or vehicle, blood was collected under ether anesthesia, and serum was separated according to general method. Treated number was 5 for each group.
Measurement of concentration of uric acid was conducted with following prepared reagents. The deproteinization reagent was prepared in the following manner; 100 g of sodium tungstate was added to a 2 L flask, and exactly 75 mL of 85% phosphoric acid and 500 mL of water were added to the flask equipped with a reflux condenser, and heated for an hour. After cooling, the resulting faint yellow-green solution was diluted to 1 L exactly. Sodium carbonate-urea reagent was prepared in the following manner; 14 g of anhydrous sodium carbonate and 14 g of urea were dissolved in water and final volume of the solution was adjusted to 100 mL exactly. Phosphotungstic coloring reagent was prepared in 4-fold dilution of deproteinzation reagent described above with water. UA standard solution (10 mg/dL: Kyokuto pharmaceutical industrial CO., LTD) was used as an uric acid standard solution, and then serially diluted uric acid standard solution with purified water was also used for standard curve.
Three hundred μL of serum or standard was added to 2.1 mL of purified water, and then 150 μL of deproteination reagent was also added to the solution, followed by mixing. After incubating for 20 minutes, the mixture was centrifuged at 3000 rpm for 10 minutes. Sodium carbonate-urea reagent (0.5 mL) was added to 1.5 mL of supernatant, and the mixture was incubated for 20 minutes. Next, after addition of 250 μL of coloring reagent, further incubation was carried over 15 minutes. Absorbance at 660 nm was measured, and concentration of uric acid was calculated with standard curve. Percent decrease in concentration of uric acid was calculated by following formula. Percent decrease in concentration of uric acid (%)=(A−B)/A×100
In formula, A means average of concentration of blood uric acid in control group, B means average of concentration of blood uric acid in test compounds-treated group.

[3] = biological target: T2, xanthine oxidase (from buttermilk) (Bos taurus, UniProt P80457); assay: Xanthine oxidase inhibitory effect; format: biochemical; conditions: 100 μmol/L xanthine, 5 mU/mL enzyme; read-out: X.O. inhibition IC50
T2 construct: xanthine oxidase (from buttermilk; biozyme laboratories); purchased biozyme laboratories; host or cells: buttermilk (natural source)
T2 sequence (P80457 whole entry): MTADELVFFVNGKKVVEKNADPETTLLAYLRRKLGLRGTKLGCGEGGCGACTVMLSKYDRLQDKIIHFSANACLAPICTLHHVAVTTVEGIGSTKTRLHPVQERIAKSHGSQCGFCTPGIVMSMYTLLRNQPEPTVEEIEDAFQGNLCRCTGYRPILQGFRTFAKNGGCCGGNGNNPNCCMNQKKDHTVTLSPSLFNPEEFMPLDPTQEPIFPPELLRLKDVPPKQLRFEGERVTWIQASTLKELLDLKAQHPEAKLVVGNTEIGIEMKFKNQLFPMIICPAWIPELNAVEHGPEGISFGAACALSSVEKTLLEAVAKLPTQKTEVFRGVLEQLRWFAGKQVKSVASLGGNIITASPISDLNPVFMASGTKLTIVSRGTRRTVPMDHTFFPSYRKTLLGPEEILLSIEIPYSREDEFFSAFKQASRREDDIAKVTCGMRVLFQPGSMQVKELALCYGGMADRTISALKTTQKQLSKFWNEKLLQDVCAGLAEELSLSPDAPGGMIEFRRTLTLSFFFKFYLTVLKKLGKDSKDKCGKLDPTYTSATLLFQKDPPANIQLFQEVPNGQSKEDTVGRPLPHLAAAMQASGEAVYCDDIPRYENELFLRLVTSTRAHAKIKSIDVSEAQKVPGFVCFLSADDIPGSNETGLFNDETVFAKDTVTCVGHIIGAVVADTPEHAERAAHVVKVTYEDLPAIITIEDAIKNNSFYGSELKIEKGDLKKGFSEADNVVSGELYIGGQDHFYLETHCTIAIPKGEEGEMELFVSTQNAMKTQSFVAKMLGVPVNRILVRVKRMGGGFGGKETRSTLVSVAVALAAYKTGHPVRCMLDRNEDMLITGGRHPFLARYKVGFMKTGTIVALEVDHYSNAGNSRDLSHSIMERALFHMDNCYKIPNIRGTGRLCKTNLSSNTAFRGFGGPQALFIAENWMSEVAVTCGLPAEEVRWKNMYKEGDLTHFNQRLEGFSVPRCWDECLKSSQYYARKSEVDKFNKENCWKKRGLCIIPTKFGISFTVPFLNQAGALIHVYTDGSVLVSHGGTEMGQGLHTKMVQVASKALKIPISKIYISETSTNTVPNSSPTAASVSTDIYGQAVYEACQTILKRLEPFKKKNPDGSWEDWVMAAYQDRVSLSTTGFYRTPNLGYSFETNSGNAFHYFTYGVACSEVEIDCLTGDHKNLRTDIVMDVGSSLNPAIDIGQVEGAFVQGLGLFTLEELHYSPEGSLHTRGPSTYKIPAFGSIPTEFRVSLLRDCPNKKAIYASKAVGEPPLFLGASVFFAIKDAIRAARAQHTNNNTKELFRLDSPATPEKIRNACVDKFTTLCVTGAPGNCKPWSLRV
Procedure: Assay for inhibition of xanthine oxidase was performed in 100 μmol/L substrate concentration (final concentration), 5 mU/mL enzyme concentration (final concentration) and compounds of the present invention as test compounds which were prepared with xanthine oxidase (from buttermilk; biozyme laboratories), xanthine (Sigma) and phosphate-buffered saline (PBS). In addition, all test compounds were frozen for preservation in condition of 20 mmol/L DMSO solution and used for experiments after thawing at need. Method is following: after diluted solution of test compound was added to 90 μL of 11.1 mU/mL enzyme solution, the mixture was incubated for 10 minutes after mixing. To start reaction, 100 μL of 200 μmol/L substrate solution was added to there, 10 minutes later, the reaction was stopped by addition of 500 μL of 0.5 mol/L sulfuric acid, and then absorbance at […] was measured. Final concentration of test compound was a single concentration, 10 μmol/L in single well for initial screening and 6 concentrations, 10, 1 μmol/L, 100, 10, 1 nmol/L, 100 pmol/L in duplicate for assay to calculate 50% inhibitory concentration (IC50) which were used for assay. Percent inhibition was calculated according to the formula described below. Percent inhibition (%)=(A−B)/(A−C)×100
In formula, A means absorbance in wells without test compound, B means absorbance in wells with test compound, C means absorbance in blank wells.
IC50 value was calculated from percent inhibition in each concentration by nonlinear regression method.

inhibition at 100 µM [1] | IC50 [3] | Structure (SMILES) | inhibition in vivo at 10 mg/kg [2] | inhibition in vivo at 50 mg/kg ([2]; 50 mg/kg orally)
59.5% | 5.98 nM | N#Cc1cn(-c2ccc(C(=O)O)cc2)cc1-c1cccs1 [XO-B401] | 78.8% | –
55.5% | 4.73 nM | Cc1ccsc1-c1cn(-c2ccc(C(=O)O)cc2)cc1C#N [XO-B407] | 76.9% | –
62.6% | 4.63 nM | N#Cc1cn(-c2ccc(C(=O)O)cc2)cc1-c1ccsc1 [XO-B418] | 79.1% | –
68.8% | 3.82 nM | N#Cc1cn(-c2ccc(C(=O)O)cc2)cc1-c1ccc2c(c1)OCCO2 [XO-B434] | 63.2% | –
92.3% | 13.8 nM | Cc1ccc2c(c1)c(C#N)cn2-c1ccc(C(=O)O)cc1 [XO-CH164] | – | 51.4%
80.6% | 14.5 nM | COc1ccc2c(c1)c(C#N)cn2-c1ccc(C(=O)O)cc1 [XO-CH183] | – | –
91.5% | 49.1 nM | N#Cc1cn(-c2ccc(C(=O)O)cc2)c2cc3c(cc12)OCO3 [XO-CH199] | – | –
88.6% | 50.5 nM | N#Cc1cn(-c2ccc(C(=O)O)cc2)c2cccc(Cl)c12 [XO-CH201] | – | –
93.9% | 96.5 nM | COc1ccc2c(C#N)cn(-c3ccc(C(=O)O)cc3)c2c1 [XO-CH207] | – | –
97.1% | 60.8 nM | N#Cc1cn(-c2ccc(C(=O)O)cc2)c2cc(Cl)ccc12 [XO-CH209] | – | –
81.1% | 16.4 nM | COc1cccc2c1c(C#N)cn2-c1ccc(C(=O)O)cc1 [XO-CH211] | – | –
92.4% | 99.2 nM | N#Cc1cn(-c2ccc(C(=O)O)cc2)c2ncc(Br)cc12 [XO-KT16] | – | –
67.1% | 3.74 nM | N#Cc1cn(-c2ccc(C(=O)O)cc2)nc1-c1cccs1 [XO-TT508] | – | –
70.8% | 4.79 nM | N#Cc1cn(-c2ccc(C(=O)O)cc2)nc1-c1ccsc1 [XO-TT571] | 62% | –
